In brackets after ≈: the same amount, converted by molar mass.
Columns and labels:
[1] = tested on: Staphylococcus aureus; experiment: Antibacterial activity against methicillin-sensitive Staphylococcus aureus ATCC 29213 assessed as inhibition of bacterial growth incubated for 18 hrs by two-fold serial dilution method; assay type: functional
[2] = tested on: Enterococcus faecium; experiment: Antibacterial activity against Enterococcus faecium ATCC19434 assessed as inhibition of bacterial growth incubated for 18 hrs by two-fold serial dilution method; assay type: functional
[3] = tested on: Staphylococcus aureus; experiment: Antibacterial activity against methicillin-resistant Staphylococcus aureus ATCC 43300 assessed as inhibition of bacterial growth incubated for 18 hrs by two-fold serial dilution method; assay type: functional
[4] = tested on: Staphylococcus epidermidis; experiment: Antibacterial activity against Staphylococcus epidermidis ATCC12228 assessed as inhibition of bacterial growth incubated for 18 hrs by two-fold serial dilution method; assay type: functional
[5] = tested on: Mycoplasmoides pneumoniae; experiment: Antibacterial activity against Mycoplasma pneumoniae ATCC29342 assessed as inhibition of bacterial growth incubated for 18 hrs by two-fold serial dilution method; assay type: functional
[6] = tested on: HT-29; experiment: Cytotoxicity against human HT-29 cells assessed as cell growth inhibition measured after 72 hrs by MTT assay; assay type: functional, cell-based; conditions: HT-29, 72 h
[7] = tested on: HepG2; experiment: Cytotoxicity against human HepG2 cells assessed as cell growth inhibition measured after 72 hrs by MTT assay; assay type: functional, cell-based; conditions: HepG2, 72 h
[8] = tested on: Mycoplasmoides pneumoniae; experiment: Antibacterial activity against drug resistant Mycoplasma pneumoniae assessed as inhibition of bacterial growth incubated for 18 hrs by two-fold serial dilution method; assay type: functional
[9] = tested on: HGC-27; experiment: Cytotoxicity against human HGC-27 cells assessed as cell growth inhibition measured after 72 hrs by MTT assay; assay type: functional, cell-based; conditions: HGC-27, 72 h
[10] = tested on: Mycoplasmoides pneumoniae; experiment: Antibacterial activity against Mycoplasma pneumoniae ATCC15531 assessed as inhibition of bacterial growth incubated for 18 hrs by two-fold serial dilution method; assay type: functional
[11] = tested on: U-87 MG; experiment: Cytotoxicity against human U87 cells assessed as cell growth inhibition measured after 72 hrs by MTT assay; assay type: functional, cell-based, U-87MG ATCC
[12] = tested on: MCF7; experiment: Cytotoxicity against human MCF7 cells assessed as cell growth inhibition measured after 72 hrs by MTT assay; assay type: functional, cell-based; conditions: MCF7, 72 h

Q: With C=C[C@]1(C)C[C@@H](OC(=O)CNC(=S)Nc2ccc(C(F)(F)F)cc2)[C@]2(C)[C@H](C)CC[C@]3(CCC(=O)[C@H]32)[C@@H](C)[C@@H]1O as the compound, how does the MIC [1] read?
A: 1 µg/mL (≈ 1.72 µM)

Q: What about the MIC [2] of the same compound?
A: 8 µg/mL (≈ 13.8 µM)

Q: And the MIC [3]?
A: 1 µg/mL (≈ 1.72 µM)

Q: What about the MIC [4] of the same compound?
A: > 64 µg/mL

Q: C=C[C@]1(C)C[C@@H](OC(=O)CNC(=S)NC2CCCCC2)[C@]2(C)[C@H](C)CC[C@]3(CCC(=O)[C@H]32)[C@@H](C)[C@@H]1O was tested. Which MIC [1] did it give?
A: 1 µg/mL (≈ 1.93 µM)

Q: And the MIC [2]?
A: 32 µg/mL (≈ 61.7 µM)

Q: What about the MIC [3] of the same compound?
A: 1 µg/mL (≈ 1.93 µM)

Q: What about the MIC [4] of the same compound?
A: > 64 µg/mL

Q: With C=C[C@]1(C)C[C@@H](OC(=O)CNC(=O)Nc2cccc(Cl)c2)[C@]2(C)[C@H](C)CC[C@]3(CCC(=O)[C@H]32)[C@@H](C)[C@@H]1O as the compound, how does the MIC [1] read?
A: 1 µg/mL (≈ 1.88 µM)

Q: What about the MIC [2] of the same compound?
A: 8 µg/mL (≈ 15.1 µM)

Q: And the MIC [3]?
A: 0.5 µg/mL (≈ 0.941 µM)

Q: What about the MIC [4] of the same compound?
A: > 64 µg/mL

Q: How did the MIC [1] turn out when C=C[C@]1(C)C[C@@H](OC(=O)CNC(=O)Nc2cc(Cl)cc(Cl)c2)[C@]2(C)[C@H](C)CC[C@]3(CCC(=O)[C@H]32)[C@@H](C)[C@@H]1O was run?
A: 0.5 µg/mL (≈ 0.884 µM)

Q: What about the MIC [2] of the same compound?
A: 32 µg/mL (≈ 56.6 µM)

Q: And the MIC [3]?
A: 0.5 µg/mL (≈ 0.884 µM)

Q: And the MIC [4]?
A: > 64 µg/mL

Q: Which MIC [1] does the source give for C=C[C@]1(C)C[C@@H](OC(=O)CNC(=O)Nc2cccc3ccccc23)[C@]2(C)[C@H](C)CC[C@]3(CCC(=O)[C@H]32)[C@@H](C)[C@@H]1O here?
A: 2 µg/mL (≈ 3.66 µM)

Q: And the MIC [2]?
A: 16 µg/mL (≈ 29.3 µM)

Q: And the MIC [3]?
A: 2 µg/mL (≈ 3.66 µM)

Q: And the MIC [4]?
A: > 64 µg/mL

Q: Which MIC [1] does the source give for C=C[C@]1(C)C[C@@H](OC(=O)CNC(=S)NC(C)=O)[C@]2(C)[C@H](C)CC[C@]3(CCC(=O)[C@H]32)[C@@H](C)[C@@H]1O here?
A: 2 µg/mL (≈ 4.18 µM)

Q: What about the MIC [2] of the same compound?
A: 16 µg/mL (≈ 33.4 µM)

Q: And the MIC [3]?
A: 2 µg/mL (≈ 4.18 µM)

Q: What about the MIC [4] of the same compound?
A: > 64 µg/mL

Q: Which results are given for C=C[C@]1(C)C[C@@H](OC(=O)CNC(=O)Nc2cccc(Br)c2)[C@]2(C)[C@H](C)CC[C@]3(CCC(=O)[C@H]32)[C@@H](C)[C@@H]1O?
A: MIC [1]: 0.0625 µg/mL (≈ 0.109 µM); MIC [5]: 0.25 µg/mL (≈ 0.434 µM); IC50 [6]: > 10 µM; MIC [2]: 4 µg/mL (≈ 6.95 µM); MIC [3]: 0.25 µg/mL (≈ 0.434 µM); IC50 [7]: > 10 µM; MIC [8]: 1 µg/mL (≈ 1.74 µM); MIC [4]: > 64 µg/mL; IC50 [9]: 3.95 µM; MIC [10]: 0.25 µg/mL (≈ 0.434 µM); IC50 [11]: > 10 µM; IC50 [12]: > 10 µM

Q: C=C[C@]1(C)C[C@@H](OC(=O)CNC(=O)Nc2ccc(F)cc2)[C@]2(C)[C@H](C)CC[C@]3(CCC(=O)[C@H]32)[C@@H](C)[C@@H]1O was tested. Which MIC [1] did it give?
A: 0.5 µg/mL (≈ 0.972 µM)

Q: What about the MIC [5] of the same compound?
A: 0.125 µg/mL (≈ 0.243 µM)

Q: And the IC50 [6]?
A: > 10 µM

Q: What about the MIC [2] of the same compound?
A: 16 µg/mL (≈ 31.1 µM)

Q: What about the MIC [3] of the same compound?
A: 0.125 µg/mL (≈ 0.243 µM)

Q: What about the IC50 [7] of the same compound?
A: > 10 µM

Q: And the MIC [8]?
A: 1 µg/mL (≈ 1.94 µM)

Q: What about the MIC [4] of the same compound?
A: > 64 µg/mL

Q: What about the IC50 [9] of the same compound?
A: > 10 µM

Q: And the MIC [10]?
A: 0.25 µg/mL (≈ 0.486 µM)

Q: What about the IC50 [11] of the same compound?
A: > 10 µM

Q: What about the IC50 [12] of the same compound?
A: > 10 µM

Q: What does the source list for C=C[C@]1(C)C[C@@H](OC(=O)CNC(=O)NC2CCCCC2)[C@]2(C)[C@H](C)CC[C@]3(CCC(=O)[C@H]32)[C@@H](C)[C@@H]1O?
A: MIC [1]: 2 µg/mL (≈ 3.98 µM); MIC [2]: 8 µg/mL (≈ 15.9 µM); MIC [3]: 2 µg/mL (≈ 3.98 µM); MIC [4]: > 64 µg/mL

Q: With C=C[C@]1(C)C[C@@H](OC(=O)CNC(=O)Nc2ccc(F)cc2F)[C@]2(C)[C@H](C)CC[C@]3(CCC(=O)[C@H]32)[C@@H](C)[C@@H]1O as the compound, how does the MIC [1] read?
A: 0.25 µg/mL (≈ 0.469 µM)

Q: And the MIC [5]?
A: 0.125 µg/mL (≈ 0.235 µM)

Q: What about the IC50 [6] of the same compound?
A: > 10 µM

Q: What about the MIC [2] of the same compound?
A: 16 µg/mL (≈ 30 µM)

Q: What about the MIC [3] of the same compound?
A: 0.25 µg/mL (≈ 0.469 µM)

Q: What about the IC50 [7] of the same compound?
A: > 10 µM

Q: And the MIC [8]?
A: 1 µg/mL (≈ 1.88 µM)

Q: What about the MIC [4] of the same compound?
A: > 64 µg/mL

Q: What about the IC50 [9] of the same compound?
A: > 10 µM

Q: What about the MIC [10] of the same compound?
A: 0.25 µg/mL (≈ 0.469 µM)

Q: And the IC50 [11]?
A: > 10 µM

Q: And the IC50 [12]?
A: > 10 µM

Q: How did the MIC [1] turn out when C=C[C@]1(C)C[C@@H](OC(=O)CNC(=O)Nc2ccc(Cl)cc2)[C@]2(C)[C@H](C)CC[C@]3(CCC(=O)[C@H]32)[C@@H](C)[C@@H]1O was run?
A: 0.25 µg/mL (≈ 0.471 µM)

Q: And the IC50 [6]?
A: > 10 µM

Q: And the MIC [2]?
A: 16 µg/mL (≈ 30.1 µM)

Q: What about the MIC [3] of the same compound?
A: 0.25 µg/mL (≈ 0.471 µM)

Q: And the IC50 [7]?
A: > 10 µM

Q: What about the MIC [4] of the same compound?
A: > 64 µg/mL

Q: And the IC50 [9]?
A: > 10 µM

Q: And the IC50 [11]?
A: > 10 µM

Q: And the IC50 [12]?
A: > 10 µM

Q: C=C[C@]1(C)C[C@@H](OC(=O)CNC(=S)NC(=O)c2ccc(Cl)cc2)[C@]2(C)[C@H](C)CC[C@]3(CCC(=O)[C@H]32)[C@@H](C)[C@@H]1O was tested. Which MIC [1] did it give?
A: 16 µg/mL (≈ 27.8 µM)

Q: And the MIC [2]?
A: 8 µg/mL (≈ 13.9 µM)

Q: And the MIC [3]?
A: 16 µg/mL (≈ 27.8 µM)

Q: What about the MIC [4] of the same compound?
A: > 64 µg/mL

Q: Which results are given for C=C[C@]1(C)C[C@@H](OC(=O)CNC(=O)Nc2ccccc2)[C@]2(C)[C@H](C)CC[C@]3(CCC(=O)[C@H]32)[C@@H](C)[C@@H]1O?
A: MIC [1]: 0.5 µg/mL (≈ 1.01 µM); MIC [2]: 32 µg/mL (≈ 64.4 µM); MIC [3]: 0.5 µg/mL (≈ 1.01 µM); MIC [4]: > 64 µg/mL

Q: Which MIC [1] does the source give for C=C[C@]1(C)C[C@@H](OC(=O)CNC(=S)NC(=O)c2ccc(Br)cc2)[C@]2(C)[C@H](C)CC[C@]3(CCC(=O)[C@H]32)[C@@H](C)[C@@H]1O here?
A: 16 µg/mL (≈ 25.8 µM)

Q: And the MIC [2]?
A: 16 µg/mL (≈ 25.8 µM)

Q: What about the MIC [3] of the same compound?
A: 16 µg/mL (≈ 25.8 µM)

Q: And the MIC [4]?
A: > 64 µg/mL

Q: Which results are given for C=C[C@]1(C)C[C@@H](OC(=O)CNC(=O)Nc2cccc(C)c2)[C@]2(C)[C@H](C)CC[C@]3(CCC(=O)[C@H]32)[C@@H](C)[C@@H]1O?
A: MIC [1]: 0.125 µg/mL (≈ 0.245 µM); MIC [2]: 16 µg/mL (≈ 31.3 µM); MIC [3]: 0.5 µg/mL (≈ 0.979 µM); MIC [4]: > 64 µg/mL

Source: ChEMBL document CHEMBL5143602, “Design, synthesis and antibacterial evaluation of pleuromutilin derivatives” (Bioorg Med Chem, 2022)
